Measurements taken from patent US20080279868A1, “Antibody-Drug Conjugates and Methods of Use” (priority 2005, published 2008).

Test: Rate of cyclization of 6-membered hydrazine linker in buffer
Format: physicochemical
Conditions: for rate of cyclization of the hydrazine linker: buffer at pH 7.4
Description: A duocarmycin analog conjugated to a dimethyl 6-membered hydrazine linker was incubated in buffer at pH 7.4 for 24 hours and the generation of cyclized product resulting from cyclization of the hydrazine linker, thereby releasing free duocarmycin analog, was assessed over time.
A duocarmycin analog conjugated to a gem-dimethyl 6-membered hydrazine linker was incubated in buffer at pH 7.4 and the generation of cyclized product resulting from cyclization of the hydrazine linker, thereby releasing free duocarmycin analog, was assessed over time.

Row | SMILES | rate of cyclization of the hydrazine linker | generation of cyclized product resulting from cyclization of the hydrazine linker (buffer at pH 7.4, over 24 hours)
1 | COC(=O)c1c(C)[nH]c2c(OC(=O)N(C)CC(=O)N(C)N)cc3c(c12)[C@H](CCl)CN3C(=O)c1cc2cc(OC)ccc2o1 | relatively slow rate of cyclization | Minimal amounts of cyclized product
2 | COC(=O)c1c(C)[nH]c2c(OC(=O)N(C)C(C)(C)C(=O)N(C)N)cc3c(c12)[C@H](CCl)CN3C(=O)c1cc2cc(OC)ccc2o1 | proceeding to completion within a few minutes | 
